Measurements published in PubChem BioAssay AID248 (DTP/NCI, 2004).
“And” between values parts separate entries of the source, which are not always exact repeats. Identical values can stand only once. Inconclusive results and toxic doses are left out. Cut-off read from the data, not from the text of the source: active = T/C of 150% or more; inactive = T/C below 125%. Numbered stars: 1 amine (or outer) side, 2 acyl side, 3 side chain; on linkers, the order of the positions; unused ones are H or OH. Bridge positions count the residues as written; N and C are the ends. Square brackets hold non-standard residues; d marks the D form. Peptide text beside a SMILES is read from it. * marks the point of attachment. X3 = CC(C)C(C)C(C(=O)[*:2])N(C)[*:1]; Picolinoyl(3-OH) = O=C(c1ncccc1O)*; NMePhg = CN[CH](C(=O)O)c1ccccc1; Hyp = O=C(O)[CH]1C[CH](O)CN1; Sar = CNCC(=O)O

Tested on: L1210 leukemia ip in BDF1 mice, survival T/C
Test: NCI In Vivo Anticancer Drug Screen. Data for tumor model L1210 Leukemia (intraperitoneal) in B6D2F1 (BDF1) mice
Details: endpoint: mean survival time, higher = longer survival
Outline: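 Survival endpoint. Drug-treated group vs vehicle group, expressed as T divided by C. Tumor passaged by transplantation.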

[1] = dose: 100.0 mg/kg/injection, schedule: Q01DX001 (ip), vehicle: Klucel (hydroxypropylcellulose) (HPC)
[2] = dose: 200.0 mg/kg/injection, schedule: Q01DX001 (ip), vehicle: Klucel (hydroxypropylcellulose) (HPC)
[3] = dose: 400.0 mg/kg/injection, schedule: Q01DX001 (ip), vehicle: Klucel (hydroxypropylcellulose) (HPC)
[4] = dose: 100.0 mg/kg/injection, schedule: Q01DX009 (ip), vehicle: Klucel (hydroxypropylcellulose) (HPC)
[5] = dose: 100.0 mg/kg/injection, schedule: Q04DX003 (ip), vehicle: Klucel (hydroxypropylcellulose) (HPC)
[6] = dose: 200.0 mg/kg/injection, schedule: Q01DX009 (ip), vehicle: Klucel (hydroxypropylcellulose) (HPC)
[7] = dose: 200.0 mg/kg/injection, schedule: Q04DX003 (ip), vehicle: Klucel (hydroxypropylcellulose) (HPC)
[8] = dose: 400.0 mg/kg/injection, schedule: Q01DX009 (ip), vehicle: Klucel (hydroxypropylcellulose) (HPC)
[9] = dose: 400.0 mg/kg/injection, schedule: Q04DX003 (ip), vehicle: Klucel (hydroxypropylcellulose) (HPC)
[10] = dose: 400.0 mg/kg/injection, schedule: Q04DX003 (ip), vehicle: saline with Tween-80
[11] = dose: 100.0 mg/kg/injection, schedule: Q01DX001 (ip), vehicle: carboxymethylcellulose (CMC)
[12] = dose: 200.0 mg/kg/injection, schedule: Q01DX001 (ip), vehicle: carboxymethylcellulose (CMC)
[13] = dose: 400.0 mg/kg/injection, schedule: Q01DX001 (ip), vehicle: carboxymethylcellulose (CMC)
[14] = dose: 100.0 mg/kg/injection, schedule: Q04DX002 (ip), vehicle: saline
[15] = dose: 200.0 mg/kg/injection, schedule: Q04DX002 (ip), vehicle: saline
[16] = dose: 400.0 mg/kg/injection, schedule: Q04DX002 (ip), vehicle: saline
[17] = dose: 100.0 mg/kg/injection, schedule: Q01DX009 (ip), vehicle: saline with Tween-80
[18] = dose: 200.0 mg/kg/injection, schedule: Q01DX009 (ip), vehicle: saline with Tween-80
[19] = dose: 400.0 mg/kg/injection, schedule: Q01DX009 (ip), vehicle: saline with Tween-80
[20] = dose: 50.0 mg/kg/injection, schedule: Q01DX001 (ip), vehicle: carboxymethylcellulose (CMC)

Measured: T/C

COC1OC2COC(c3ccccc3)OC2C(O)C1OC (configuration not stated)
inactive: dose: 12.5 mg/kg/injection, schedule: Q04DX002 (ip), vehicle: saline 100 % of control | dose: 25.0 mg/kg/injection, schedule: Q04DX002 (ip), vehicle: saline 100 % of control | dose: 50.0 mg/kg/injection, schedule: Q04DX002 (ip), vehicle: saline 116 % of control

O=C1c2ccccc2C(=O)N1CCC[P+](c1ccccc1)(c1ccccc1)c1ccccc1
inactive: dose: 6.25 mg/kg/injection, schedule: Q01DX009 (ip), vehicle: saline with Tween-80 106 % of control | dose: 12.5 mg/kg/injection, schedule: Q01DX009 (ip), vehicle: saline with Tween-80 111 % of control | dose: 25.0 mg/kg/injection, schedule: Q01DX009 (ip), vehicle: saline with Tween-80 116 % of control and 120 % of control

NC1=NCN(c2ccc(OCCOc3ccc([N+](=O)[O-])cc3)cc2)C(N)=N1
inactive: [1] 107 % of control | [2] 102 % of control | [3] 97 % of control

O=C(Nc1cc(C(F)(F)F)ccc1Cl)SCCSC(=O)Nc1cc(C(F)(F)F)ccc1Cl
inactive: [4] 87 % of control | [5] 102 % of control | [6] 103 % of control | [7] 100 % of control | [8] 93 % of control | [9] 97 % of control

C1=C(c2ccccc2)C(c2ccccc2)c2ccccc21 (configuration not stated)
inactive: dose: 12.5 mg/kg/injection, schedule: Q04DX002 (ip), vehicle: saline with Tween-80 90 % of control | dose: 25.0 mg/kg/injection, schedule: Q04DX002 (ip), vehicle: saline with Tween-80 98 % of control | dose: 50.0 mg/kg/injection, schedule: Q04DX002 (ip), vehicle: saline with Tween-80 90 % of control | [10] 90 % of control

CC(C)CC(CC(C)C)=NO
inactive: [11] 104 % of control | [12] 101 % of control | [13] 103 % of control

CCCCCCCCCC(=O)N1CCC(C)CC1
inactive: [14] 111 % of control | [15] 104 % of control | [16] 101 % of control

CC(C)CC1NC(=O)C(NC(=O)c2ncccc2O)C(C)OC(=O)C(c2ccccc2)N(C)C(=O)C(C)NC(=O)C(C(C)C(C)C)N(C)C(=O)CN(C)C(=O)C2CC(O)CN2C1=O (configuration not stated) ({Picolinoyl(3-OH)}-TL[Hyp][Sar][X3]A[NMePhg]; ester 1-C; configuration not given here)
inactive: dose: 5.3 mg/kg/injection, schedule: Q01DX Z (ip), vehicle: saline 100 % of control | dose: 8.0 mg/kg/injection, schedule: Q01DX Z (ip), vehicle: saline 100 % of control | dose: 12.0 mg/kg/injection, schedule: Q01DX Z (ip), vehicle: saline 103 % of control | dose: 18.0 mg/kg/injection, schedule: Q01DX Z (ip), vehicle: saline 103 % of control and 109 % of control | dose: 36.0 mg/kg/injection, schedule: Q01DX Z (ip), vehicle: saline 97 % of control | dose: 72.0 mg/kg/injection, schedule: Q01DX Z (ip), vehicle: saline 103 % of control | dose: 144.0 mg/kg/injection, schedule: Q01DX Z (ip), vehicle: saline 106 % of control

O=C(O)CCOc1ccccc1[N+](=O)[O-]
inactive: dose: 37.5 mg/kg/injection, schedule: Q01DX009 (ip), vehicle: saline with Tween-80 91 % of control | dose: 75.0 mg/kg/injection, schedule: Q01DX009 (ip), vehicle: saline with Tween-80 91 % of control | [4] 97 % of control | dose: 150.0 mg/kg/injection, schedule: Q01DX009 (ip), vehicle: saline with Tween-80 88 % of control | [6] 87 % of control | [8] 95 % of control

C[N+](C)(C)c1ccc([N+](=O)[O-])cn1
inactive: dose: 100.0 mg/kg/injection, schedule: Q04DX003 (ip), vehicle: saline 101 % of control

CC[CH2][Sn]([CH2]C)([c]1ccccc1)[c]1ccccc1
inactive: [1] 97 % of control | [2] 106 % of control | [3] 101 % of control

CCOC(=O)c1cnc(SC)nc1N(CC)c1ccccc1
inactive: dose: 100.0 mg/kg/injection, schedule: Q01DX009 (ip), vehicle: gum acacia 105 % of control | dose: 100.0 mg/kg/injection, schedule: Q04DX003 (ip), vehicle: gum acacia 102 % of control | dose: 200.0 mg/kg/injection, schedule: Q01DX009 (ip), vehicle: gum acacia 100 % of control | dose: 200.0 mg/kg/injection, schedule: Q04DX003 (ip), vehicle: gum acacia 102 % of control | dose: 400.0 mg/kg/injection, schedule: Q01DX009 (ip), vehicle: gum acacia 102 % of control | dose: 400.0 mg/kg/injection, schedule: Q04DX003 (ip), vehicle: gum acacia 102 % of control

c1cc2c(cc1CNC1CCCCC1)OCO2
inactive: dose: 75.0 mg/kg/injection, schedule: Q01DX001 (ip), vehicle: saline 100 % of control

CCOC(=O)C(N)CSCc1ccccc1 (configuration not stated)
inactive: [17] 97 % of control | [18] 92 % of control | [19] 97 % of control

CSCc1ccc([N+](=O)[O-])cc1
inactive: [4] 103 % of control | [5] 101 % of control | [6] 103 % of control | [7] 106 % of control | [8] 116 % of control | [9] 95 % of control

CC(C)(CCC(=O)O)CCC(=O)O
inactive: [20] 100 % of control | [11] 111 % of control | [12] 100 % of control | [13] 94 % of control

CCN(CC)CCOC(=O)C(S)(c1ccccc1)c1ccccc1
inactive: dose: 75.0 mg/kg/injection, schedule: Q01DX001 (ip), vehicle: other 100 % of control

COc1ccc([N+](=O)[O-])c2c(C)cc(=O)[nH]c12
inactive: [1] 100 % of control | [4] 104 % of control | [2] 94 % of control | [6] 97 % of control | [3] 94 % of control

CCCCOP(=O)(OCCCC)Oc1cccc([N+](=O)[O-])c1
inactive: dose: 6.25 mg/kg/injection, schedule: Q01DX009 (ip), vehicle: carboxymethylcellulose (CMC) 117 % of control and 89 % of control | dose: 6.25 mg/kg/injection, schedule: Q04DX002 (ip), vehicle: carboxymethylcellulose (CMC) 93 % of control and 101 % of control | dose: 12.5 mg/kg/injection, schedule: Q01DX009 (ip), vehicle: carboxymethylcellulose (CMC) 110 % of control and 89 % of control | dose: 12.5 mg/kg/injection, schedule: Q04DX002 (ip), vehicle: carboxymethylcellulose (CMC) 93 % of control and 101 % of control | dose: 25.0 mg/kg/injection, schedule: Q01DX001 (ip), vehicle: carboxymethylcellulose (CMC) 104 % of control | dose: 25.0 mg/kg/injection, schedule: Q01DX009 (ip), vehicle: carboxymethylcellulose (CMC) 98 % of control and 92 % of control | [20] 100 % of control

O=C1NC(=O)C2C(c3ccccc3)=NOC2N1 (configuration not stated)
inactive: [4] 103 % of control | [5] 97 % of control | [6] 103 % of control | [7] 90 % of control | [8] 98 % of control | [9] 97 % of control

Nc1ncc[nH]1
inactive: dose: 100.0 mg/kg/injection, schedule: Q01DX009 (ip), vehicle: saline 107 % of control | [14] 90 % of control | dose: 200.0 mg/kg/injection, schedule: Q01DX009 (ip), vehicle: saline 114 % of control | [15] 93 % of control | dose: 400.0 mg/kg/injection, schedule: Q01DX009 (ip), vehicle: saline 122 % of control | [16] 90 % of control

O=S(=O)(Nc1ccc(CCc2ccc(NS(=O)(=O)c3ccccc3)cc2)cc1)c1ccccc1
inactive: [17] 95 % of control | [18] 98 % of control | [19] 98 % of control

COc1ccc(COC(=O)Oc2ccc(Cl)cc2)cc1OC
inactive: dose: 100.0 mg/kg/injection, schedule: Q04DX003 (ip), vehicle: saline with Tween-80 96 % of control | dose: 200.0 mg/kg/injection, schedule: Q04DX003 (ip), vehicle: saline with Tween-80 96 % of control | [10] 101 % of control

O=C(CI)Nc1ccc2oc(=O)c(C(=O)O)cc2c1
inactive: dose: 20.0 mg/kg/injection, schedule: Q01DX001 (ip), vehicle: Klucel (hydroxypropylcellulose) (HPC) 100 % of control | dose: 40.0 mg/kg/injection, schedule: Q01DX001 (ip), vehicle: Klucel (hydroxypropylcellulose) (HPC) 108 % of control | dose: 80.0 mg/kg/injection, schedule: Q01DX001 (ip), vehicle: Klucel (hydroxypropylcellulose) (HPC) 107 % of control | [1] 97 % of control
